Results reported in article PMC11256326, “Discovery of Heparin Mimetic, Potent, and Selective Inhibitors of Human Clotting Factor XIIIa” (ACS Omega, 2024).

Molecular target: T1, factor Xa (Homo sapiens, UniProt P00742)
T1 construct: Human plasma proteins such as FXIIIa, thrombin, factor Xa, and factor XIa; purchased Haematologic Technologies; host or cells: human plasma
Test: chromogenic substrate hydrolysis assay, factor Xa
Format: biochemical
Details: for IC50: Tris-HCl pH 7.4, 37 °C, > values from highest concentration used, read-out: FXa IC50; for FXa HS (Hill slope) / FXa ΔY (efficacy): pH 7.4, 37 °C
From the text: One of the motivations for targeting anion-binding sites on human FXIIIa was to achieve selectivity in inhibition over closely related enzymes such as other clotting serine proteases or other transglutaminases and cysteine proteases.
Human plasma proteins such as FXIIIa, thrombin, factor Xa, and factor XIa were procured from Haematologic Technologies. Recombinant human TG-2 was sourced from Tocris Bioscience. Their activities were validated according to the supplier’s instructions. Chromogenic substrates for thrombin and factor Xa were acquired from Biomedica Diagnostics, while the factor XIa chromogenic substrate (S-2366) was obtained from Diapharma. Dithiothreitol, N,N-dimethylcasein, and dansylcadaverine were purchased from Sigma Aldrich. Stock solutions of thrombin and factor XIa were prepared in 50 mM Tris-HCl buffer, pH 7.4, containing 150 mM sodium chloride, 0.1% PEG8000, and 0.02% Tween80. The stock solution of factor Xa was prepared in 20 mM Tris-HCl buffer, pH 7.4, containing 100 mM sodium chloride, 0.1% PEG8000, 2.5 mM CaCl2, and 0.02% Tween80. The stock solutions of FXIIIa and rTG-2 were prepared in 50 mM Tris-HCl, 1 mM CaCl2, 100 mM sodium chloride, 0.02% Tween80, 0.1% PEG8000, and 2 mg/mL dimethylcasein. Papain and its chromogenic substrate (N-α-benzoyl-L-arginyl-4-nitroanilide) were obtained from Sigma Aldrich. Papain was prepared in 50 mM Tris-HCl buffer, pH 7.4, containing 100 mM NaCl, 100 mM DTT, 2.5 mM CaCl2, 0.1% PEG8000, and 0.02% Tween80. Human plasma for coagulation assays was obtained from George King Bio-Medica for the clotting assays. Thromboplastin-D (PT reagent), APTT reagent containing ellagic acid, and 0.025 M solution of CaCl2 were obtained from Thermo Fisher Scientific. Results were reproduced at least three times.
The inhibitory potential of various heparin mimetics against other clotting factors, including thrombin, factor Xa, and factor XIa, was also examined using established chromogenic substrate hydrolysis assays.[47],[50] For instance, in each well of a 96-well microplate containing either 85 or 185 μL of 20–50 mM Tris-HCl buffer (pH 7.4), supplemented with 100–150 mM NaCl, 0.1% PEG8000, and 0.02% Tween80 at either 25 or 37 °C, 5 μL of the inhibitor (or high purity water) and 5 μL of the enzyme were added. The final concentrations of the enzymes were 6 nM (thrombin), 1.09 nM (factor Xa), and 0.8 nM (factor XIa). After a 5 min incubation period, 5 μL of Spectrozyme TH (final concentration: 0.050 mM), Spectrozyme FXa (0.125 mM), or factor XIa substrate (0.35 mM) was swiftly added, and the residual enzyme activity was gauged from the initial rate of increase in absorbance at λ405 nm. The relative residual enzyme activity was calculated as a function of the inhibitor concentration. If 50% or more of the enzyme was inhibited, the results were then plotted using eq 1 to determine the corresponding IC50 values.

T1 sequence (P00742 235-488 limits assumed): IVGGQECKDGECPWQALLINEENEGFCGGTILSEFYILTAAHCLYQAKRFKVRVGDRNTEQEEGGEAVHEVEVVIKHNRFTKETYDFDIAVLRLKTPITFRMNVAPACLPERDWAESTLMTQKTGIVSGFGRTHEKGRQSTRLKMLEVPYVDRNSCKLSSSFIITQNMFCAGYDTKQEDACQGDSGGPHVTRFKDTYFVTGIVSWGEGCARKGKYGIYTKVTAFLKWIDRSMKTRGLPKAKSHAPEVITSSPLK
T1 sequence (P00742 41-179 limits assumed): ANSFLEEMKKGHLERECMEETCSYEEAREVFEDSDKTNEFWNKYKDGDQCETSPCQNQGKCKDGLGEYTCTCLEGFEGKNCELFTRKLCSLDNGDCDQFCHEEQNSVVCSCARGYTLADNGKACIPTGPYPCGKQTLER

SMILES | FXa HS (Hill slope) | FXa ΔY (efficacy) | selectivity index for FXIIIa over factor Xa | IC50
COc1cc(-c2ccc(/N=N/c3ccc4c(S(=O)(=O)O)cc(S(=O)(=O)O)c(N)c4c3O)c(OC)c2)ccc1/N=N/c1ccc2c(S(=O)(=O)O)cc(S(=O)(=O)O)c(N)c2c1O [compound 19] |  |  | at least 7 fold | > 100 µM
Nc1c(/N=N/c2ccc(S(=O)(=O)CCOS(=O)(=O)O)cc2)c(S(=O)(=O)O)cc2cc(S(=O)(=O)O)c(/N=N/c3ccc(S(=O)(=O)CCOS(=O)(=O)O)cc3)c(O)c12 [compound 16] |  |  | > 208 fold | > 500 µM

Further lines, with some results ahead:

FXa HS (Hill slope) | FXa ΔY (efficacy) | SMILES | selectivity index for FXIIIa over factor Xa | IC50
2.5 ± 0.9 | 53 ± 5% | Nc1c(/N=N/c2ccc(Nc3nc(Cl)nc(Nc4cccc(S(=O)(=O)O)c4)n3)cc2S(=O)(=O)O)c(S(=O)(=O)O)cc2c(O)c(/N=N/c3ccc(Nc4nc(Cl)nc(Nc5cccc(S(=O)(=O)O)c5)n4)cc3S(=O)(=O)O)ccc12 [compound 14] | 6 fold | 31 ± 5.7 µM
1.9 ± 0.2 | 80 ± 2% | Cc1cc(-c2ccc(/N=N/c3ccc4c(S(=O)(=O)O)cc(S(=O)(=O)O)c(N)c4c3O)c(C)c2)ccc1/N=N/c1ccc2c(S(=O)(=O)O)cc(S(=O)(=O)O)c(N)c2c1O [compound 18] |  | 
1.5 ± 0.5 | 87 ± 4% | Nc1c(S(=O)(=O)O)cc(Nc2ccc(Nc3nc(Cl)nc(Nc4ccccc4S(=O)(=O)O)n3)c(S(=O)(=O)O)c2)c2c1C(=O)c1ccccc1C2=O [compound 13] | 20 fold | 63.5 ± 13 µM
